≈ marks a conversion by molar mass, not a printed value. Where two headings read alike, the source gives them in different places.
Assays:
[1] = Single dose toxicity, intraperitoneal injection, formulations; details: mouse, in vivo, ip, outbred ICR mice (Table 32)
Procedure: The single dose toxicity of a cationic peptide and antibiotic agent combination is examined in outbred ICR mice. Intraperitoneal injection of the combination in isotonic saline is carried out at increasing dose levels. The survival of the animals is monitored for 7 days. The number of animals surviving at each dose level is used to determine the maximum tolerated dose (MTD). In addition, the MTD can be determined after administration of the peptide and agent by different routes, at different time points, and in different formulations.

[2] = Cell death by Cytotox (Promega) lactate dehydrogenase release; format: cell-based; details: LDH release
Procedure: (§1) In addition, APO-peptides and parent peptides are tested against a panel of cancer cell lines. Cell death is measured using the Cytotox (Promega) assay kit which measures the release of lactate dehydrogenase.
(§2) PBL, peripheral blood lymphocytes; HUVEC, human umbilical vein endothelial cells; H460,non-small lung tumor; K562, chronic myelogenous leukemia; DoHH-2, B-cell cell lymphoma; P388, lymphocytic leukemia; P388ADR, lymphocytic leukemia, multidrug resistant; MCF-7, breast carcinoma; MCF-7ADR, breast carcinoma, multidrug resistant.

[3] = system: mammalian red blood cells; details: 37° C., 1 hour
Procedure: Candidate cationic peptides may be further tested for their toxicity to normal mammalian cells. An exemplary assay is a red blood cell (RBC) (erythrocyte) hemolysis assay. Briefly, in this assay, red blood cells are isolated from whole blood, typically by centrifugation, and washed free of plasma components. A 5% (v/v) suspension of erythrocytes in isotonic saline is incubated with different concentrations of peptide analogue. […] After incubation for approximately 1 hour at 37° C., the cells are centrifuged, and the absorbance of the supernatant at 540 nm is determined. A relative measure of lysis is determined by comparison to absorbance after complete lysis of erythrocytes using NH4Cl or equivalent (establishing a 100% value). A peptide with <10% lysis at 100 μg/ml is suitable. Preferably, there is <5% lysis at 100 μg/ml. Such peptides that are not lytic, or are only moderately lytic, are desirable and suitable for further screening.
Cationic peptides are tested for toxicity towards eukaryotic cells by measuring the extent of lysis of mammalian red blood cells (RBC). Briefly, in this assay, red blood cells are separated from whole blood by centrifugation and washed free of plasma components. A 5% (v/v) washed red blood cell suspension is prepared in isotonic saline. An aliquot of peptide in formulation is then added and mixed in. After incubation at 37° C. for 1 hour with constant agitation, the solution is centrifuged and the supernatant measured for absorbance at 540 nm to detect released hemoglobin.
A combination of cationic peptide and antibiotic agent is tested for toxicity towards eukaryotic cells by measuring the extent of lysis of mammalian red blood cells. Briefly, red blood cells are separated from whole blood by centrifugation, washed free of plasma components, and resuspended to a 5% (v/v) suspension in isotonic saline. […] Following incubation with constant agitation at 37° C. for 1 hour, the solution is centrifuged, and the absorbance of the supernatant is measured at 540 nm, which detects released hemoglobin. […]

[4] = system: H. influenzae; test: Agarose dilution assay (MIC); format: cell-based; details: H. influenzae strain HIN002
[5] = system: microorganisms with acquired resistance; test: microbe, parasite or virus in culture; format: cell-based; details: for Peptide MIC Alone: Piperacillin section; for FIC: peptide + Piperacillin
[6] = system: E. faecalis; format: cell-based; details: E. faecalis strain EFS004
[7] = system: S. pneumoniae; test: Agarose dilution assay (MIC); format: cell-based
[8] = system: E. faecium; format: cell-based; details: E. faecium strain EFM003
[9] = system: E. cloacae; format: cell-based; details: E. cloacae strain ECL007
[10] = system: P. aeruginosa; format: cell-based; details: P. aeruginosa strain PA041
[11] = system: inherently resistant microorganisms; test: microbe, parasite or virus in culture; format: cell-based; details: S. aureus MRSA
[12] = system: MSSA (Smith, ATCC # 19640); test: In vivo efficacy, MSSA infection; design: species or system S. aureus; details: 18 mg/kg ip, formulation D, 60 min post-infection; end of eight day observation
[13] = system: S. aureus; format: cell-based; details: S. aureus strain SA010
[14] = system: A. calcoaceticus; format: cell-based; details: A. calcoaceticus strain AC001
[15] = system: S. maltophilia; format: cell-based; details: S. maltophilia strain SMA001
[16] = system: E. coli; format: cell-based; details: E. coli strain ECO001
[17] = system: HUVEC, human umbilical vein endothelial cells; test: Cell death by Cytotox (Promega) lactate dehydrogenase release; format: cell-based; details: LDH release
Procedure: as §1, §2

[18] = system: K562, chronic myelogenous leukemia; test: as above; format: cell-based; details: LDH release
Procedure: as §1, §2

[19] = system: H460, non-small lung tumor; test: as above; format: cell-based; details: LDH release
Procedure: as §1, §2

[20] = system: DoHH-2, B-cell cell lymphoma; test: as above; format: cell-based; details: LDH release
Procedure: as §1, §2

[21] = system: P388, lymphocytic leukemia; test: as above; format: cell-based; details: LDH release
Procedure: as §1, §2

[22] = system: MCF-7ADR, breast carcinoma, multidrug resistant; test: as above; format: cell-based; details: LDH release
Procedure: as §1, §2

[23] = system: P388ADR, lymphocytic leukemia, multidrug resistant; test: as above; format: cell-based; details: LDH release
Procedure: as §1, §2

[24] = system: MCF-7, breast carcinoma; test: as above; format: cell-based; details: LDH release
Procedure: as §1, §2

[25] = system: PBL, peripheral blood lymphocytes; test: as above; format: cell-based; details: LDH release
Procedure: as §1, §2

[26] = system: S. marcescens; format: cell-based; details: S. marcescens strain SMS004
[27] = system: K. pneumoniae; format: cell-based; details: K. pneumoniae strain KP002
[28] = system: P. mirabilis; test: Agarose dilution assay (MIC); format: cell-based; details: P. mirabilis strain PM001
[29] = system: bacterial isolates; test: microbe, parasite or virus in culture; format: cell-based; details: for Peptide MIC Alone: Piperacillin section; for FIC: peptide + Piperacillin
[30] = system: S. pyogenes; test: Agarose dilution assay (MIC); format: cell-based; details: S. pyogenes strain SPY002

## CC[C@H](C)[C@H](NC(=O)[C@H](CC(C)C)NC(=O)[C@H](C)NC(=O)[C@@H]1CCCN1C(=O)[C@H](CC(C)C)NC(=O)CNC(=O)[C@@H](NC(=O)[C@@H](NC(=O)[C@H](CC(C)C)NC(=O)[C@@H](NC(=O)[C@H](CCCCN)NC(=O)[C@H](CCCCN)NC(=O)[C@@H](NC(=O)[C@H](C)NC(=O)[C@@H](NC(=O)[C@@H](NC(=O)[C@H](CC(C)C)NC(=O)[C@H](CCCCN)NC(=O)[C@H](CCCCN)NC(=O)[C@@H](NC(=O)[C@H](Cc1ccccc1)NC(=O)[C@H](CO)NC(=O)[C@H](CCCCN)NC(=O)[C@H](Cc1c[nH]c2ccccc12)NC(=O)[C@@H](N)CCCCN)[C@@H](C)CC)[C@@H](C)O)[C@@H](C)O)C(C)C)C(C)C)[C@@H](C)O)[C@@H](C)O)C(=O)N[C@@H](CO)C(=O)O [MBI 29]
[1]
  MTD at 7 days: 24 mg/kg
[2]; DoHH-2 B-cell lymphoma cells, read-out: LC50 ± S.E., DoHH-2
  CC50: 2.1 ± 0.5 µg/mL (≈ 0.731 µM)
[2]; H460 non-small lung tumor cells, read-out: LC50 ± S.E., H460
  CC50: 12.6 ± 10 µg/mL (≈ 4.39 µM)
[2]; K562, read-out: LC50 ± S.E., K562
  CC50: 1 µg/mL (≈ 0.348 µM)
[2]; MCF-7ADR multidrug resistant breast carcinoma cells, read-out: LC50 ± S.E., MCF-7 ADR
  CC50: 3.2 ± 1 µg/mL (≈ 1.11 µM)
[2]; MCF-7 breast carcinoma cells, read-out: LC50 ± S.E., MCF-7
  CC50: 4 ± 2 µg/mL (≈ 1.39 µM)
[2]; P388, read-out: LC50 ± S.E., P388
  CC50: 1.4 ± 0.5 µg/mL (≈ 0.487 µM)
[2]; P388 ADR, read-out: LC50 ± S.E., P388 ADR
  CC50: 2 ± 0.2 µg/mL (≈ 0.696 µM)
[2]; PBL, peripheral blood lymphocytes, read-out: LC50 ± S.E., PBL
  CC50: 12 ± 10 µg/mL (≈ 4.18 µM)
[2]; human, human umbilical vein endothelial cells (HUVEC), read-out: LC50 ± S.E., HUVEC
  CC50: 10 µg/mL (≈ 3.48 µM)
[3]
  % Lysis: 1.9%

## ILKKWPWWPWRRK [MBI 11E3CN]
[4]
  MIC: >128 µg/mL
[5]; A. calcoaceticus 3
  Peptide MIC + Piperacillin: 8 µg/mL
  Piperacillin MIC + Peptide: 16 µg/mL
  Peptide MIC Alone: 32 µg/mL
  FIC: 0.75
[5]; H. influenzae 1
  Peptide MIC + Piperacillin: 64 µg/mL
  Piperacillin MIC + Peptide: 8 µg/mL
  Peptide MIC Alone: >128 µg/mL
  FIC: 0.38
[5]; H. influenzae 2
  Peptide MIC + Piperacillin: 16 µg/mL
  Piperacillin MIC + Peptide: 8 µg/mL
  Peptide MIC Alone: >128 µg/mL
  FIC: 0.31
[5]; P. aeruginosa 7
  Peptide MIC + Piperacillin: 32 µg/mL
  Piperacillin MIC + Peptide: 64 µg/mL
  Peptide MIC Alone: 64 µg/mL
  FIC: 1.00
[5]; P. aeruginosa 23
  Peptide MIC + Piperacillin: 1 µg/mL
  Piperacillin MIC + Peptide: 32 µg/mL
  Peptide MIC Alone: 64 µg/mL
  FIC: 0.27
[5]; S. maltophilia 3
  Peptide MIC + Piperacillin: 16 µg/mL
  Piperacillin MIC + Peptide: 16 µg/mL
  Peptide MIC Alone: 32 µg/mL
  FIC: 0.75
[5]; S. maltophilia 4
  Peptide MIC + Piperacillin: 16 µg/mL
  Piperacillin MIC + Peptide: 16 µg/mL
  Peptide MIC Alone: 32 µg/mL
  FIC: 0.75
[5]; S. marcescens SB1
  Peptide MIC + Piperacillin: 2 µg/mL
  Piperacillin MIC + Peptide: 16 µg/mL
  Peptide MIC Alone: >128 µg/mL
  FIC: 0.26
[6]
  MIC: 8 µg/mL
[7]; S. pneumoniae strain SBSPN2
  MIC: >128 µg/mL
[7]; S. pneumoniae strain SPN044
  MIC: >128 µg/mL
[8]
  MIC: 2 µg/mL
[9]
  MIC: >128 µg/mL
[10]
  MIC: 64 µg/mL
[11]
  Peptide MIC + Piperacillin: 2 µg/mL
[11]; Piperacillin section
  Peptide MIC Alone: 4 µg/mL
[11]; peptide + Piperacillin
  FIC: 0.51
[12]
  % Survival: 70%
[13]
  MIC: 2 µg/mL
[14]
  MIC: 16 µg/mL
[15]
  MIC: 32 µg/mL
[16]
  MIC: 4 µg/mL
[17]
  LC50 ± S.E., HUVEC: 117 ± 7 µg/mL
[18]
  LC50 ± S.E., K562: 9 µg/mL
[19]
  LC50 ± S.E., H460: 18 µg/mL
[20]
  LC50 ± S.E., DoHH-2: 3.6 µg/mL
[21]
  LC50 ± S.E., P388: 13.9 ± 3 µg/mL
[22]
  LC50 ± S.E., MCF-7 ADR: 5.3 ± 1 µg/mL
[23]
  LC50 ± S.E., P388 ADR: 7.9 ± 3 µg/mL
[24]
  LC50 ± S.E., MCF-7: 5.6 ± 2 µg/mL
[25]
  LC50 ± S.E., PBL: 22 ± 11 µg/mL
[26]
  MIC: >128 µg/mL
[27]
  MIC: 32 µg/mL
[28]
  MIC: >128 µg/mL
[29]; H. influenzae 1
  Peptide MIC + Piperacillin: 4 µg/mL
  Piperacillin MIC + Peptide: 32 µg/mL
  Peptide MIC Alone: >128 µg/mL
  FIC: 0.52
[29]; H. influenzae 2
  Peptide MIC + Piperacillin: 16 µg/mL
  Piperacillin MIC + Peptide: 8 µg/mL
  Peptide MIC Alone: >128 µg/mL
  FIC: 0.31
[29]; P. aeruginosa 23
  Peptide MIC + Piperacillin: 1 µg/mL
  Piperacillin MIC + Peptide: 32 µg/mL
  Peptide MIC Alone: 64 µg/mL
  FIC: 0.27
[29]; P. aeruginosa 32
  Peptide MIC + Piperacillin: 8 µg/mL
  Piperacillin MIC + Peptide: 32 µg/mL
  Peptide MIC Alone: 64 µg/mL
  FIC: 0.63
[29]; S. aureus 19 MRSA
  Peptide MIC + Piperacillin: 1 µg/mL
  Piperacillin MIC + Peptide: 64 µg/mL
  Peptide MIC Alone: 4 µg/mL
  FIC: 0.50
[29]; S. maltophilia 11
  Peptide MIC + Piperacillin: 64 µg/mL
  Piperacillin MIC + Peptide: 2 µg/mL
  Peptide MIC Alone: 128 µg/mL
  FIC: 0.51
[29]; S. marcescens SB1
  Peptide MIC + Piperacillin: 2 µg/mL
  Piperacillin MIC + Peptide: 16 µg/mL
  Peptide MIC Alone: >128 µg/mL
  FIC: 0.26
[30]
  MIC: 16 µg/mL

Reference: US20020035061A1, “COMPOSITIONS AND METHODS FOR TREATING INFECTIONS USING CATIONIC PEPTIDES ALONE OR IN COMBINATION WITH ANTIBIOTICS” (priority 1996, published 2002)
